Results reported in patent US11937601B2, “Method for treatment of soybean rust” (Globachem NV, priority 2020, dated 2024).

Legend:
[1] = tested on: P. pachyrhizi; experiment: Field trial, defoliation percent of soybean naturally infected by soybean rust; assay type: in vivo, Phakopsora pachyrhizi
Description: (§1) A field trial was conducted to evaluate the effect and efficacy of zoxamide on soybean rust disease on soybean (Glycine max) wherein plants were naturally infected by the disease (P. pachyrhizi). The trial was divided in the following 11 treatments: • TREATMENT 1: One treatment where plants were left untreated and in which natural progression of the disease was observed; • TREATMENT 2: One reference treatment which consisted of chlorothalonil applied in 1.3 kg/ha; • TREATMENT 3: One reference treatment which consisted of treatment with prothioconazole applied in 75 g/ha. • TREATMENT 4: One reference treatment with the mixture of prothioconazole and trifloxystrobin applied in amount of 70 g/ha of prothioconazole and 60 g/ha of trifloxystrobin. • TREATMENT 5: One reference treatment with wherein tebuconazole was applied in amount of 83.3 g/ha; mancozeb in amount of 1000 g/ha and picoxystrobin in amount of 66.6 g/ha. All four reference treatments (TREATMENTS 2-5) are currently available treatments of soybean rust, wherein the mentioned compositions were prepared from commercially available products prepared according to the respective label instructions and sprayed on the plants in amounts mentioned above and in Table 1 and 2. TREATMENTS 6-8: Three treatments wherein zoxamide was applied in different doses of (6) 180 g/ha, (7) 120 g/ha, and (8) 90 g/ha. TREATMENTS 9-11: Three treatments wherein zoxamide was applied together with prothioconazole in the following doses: (9) zoxamide 180 g/ha and prothioconazole 75 g/ha; (10) zoxamide 120 g/ha and prothioconazole 75 g/ha; and (11) zoxamide 90 g/ha and prothioconazole 75 g/ha. Each of the above treatments was applied on a plot of 3 meters by 6 meters in size and was repeated in 4 replicates. Zoxamide compositions used in this trial were prepared from the suspension concentrate containing 240 g/L of zoxamide, diluted with water to predetermined concentration, vegetable oil was added to concentration of 0.25% V/V, and such composition was sprayed on the plants in the predetermined amounts. First application of respective treatments was made when soybean plant reached BBCH growth stages around 60 to 75. Growth stages were defined according to Compendium of Growth Stage Identification Keys for Mono- and Dicotyledonous Plants, Extended BBCH scale, 2nd Edition 1997, ISBN 3-9520749-3-4. For each treatment, two applications of the respective treatment were made with 14 days interval between. Disease spread and defoliation were evaluated by visual estimation of degree of infection on leaves and defoliation. In Table 1 and Table 2, the following terms have the following meaning: % S—severity; % E—efficacy; 0.0%—disease progressed to maximum; 100.0%—no disease symptoms observed.

[2] = tested on: P. pachyrhizi; experiment: Field trial, soybean rust severity and efficacy on naturally infected soybean; assay type: in vivo, Phakopsora pachyrhizi
Description: as §1

[3] = 21 days after second application, zoxamide 90 g/ha
[4] = 21 days after second application, zoxamide 120 g/ha
[5] = 21 days after second application, zoxamide 180 g/ha
[6] = 28 days after second application, zoxamide 90 g/ha
[7] = 28 days after second application, zoxamide 120 g/ha
[8] = 28 days after second application, zoxamide 180 g/ha
[9] = 7 days after first application, zoxamide 90 g/ha
[10] = 7 days after first application, zoxamide 120 g/ha
[11] = 7 days after first application, zoxamide 180 g/ha
[12] = 7 days after second application, zoxamide 90 g/ha
[13] = 7 days after second application, zoxamide 120 g/ha
[14] = 7 days after second application, zoxamide 180 g/ha
[15] = 14 days after first application, zoxamide 90 g/ha
[16] = 14 days after first application, zoxamide 120 g/ha
[17] = 14 days after first application, zoxamide 180 g/ha
[18] = 14 days after second application, zoxamide 90 g/ha
[19] = 14 days after second application, zoxamide 120 g/ha
[20] = 14 days after second application, zoxamide 180 g/ha
[21] = 21 days after second application, prothioconazole 75 g/ha
[22] = 28 days after second application, prothioconazole 75 g/ha
[23] = 7 days after first application, prothioconazole 75 g/ha
[24] = 7 days after second application, prothioconazole 75 g/ha
[25] = 14 days after first application, prothioconazole 75 g/ha
[26] = 14 days after second application, prothioconazole 75 g/ha
[27] = 21 days after second application, chlorothalonil 1296 g/ha
[28] = 28 days after second application, chlorothalonil 1296 g/ha
[29] = 7 days after first application, chlorothalonil 1296 g/ha
[30] = 7 days after second application, chlorothalonil 1296 g/ha
[31] = 14 days after first application, chlorothalonil 1296 g/ha
[32] = 14 days after second application, chlorothalonil 1296 g/ha

CCC(C)(NC(=O)c1cc(Cl)c(C)c(Cl)c1)C(=O)CCl (stereo not shown) [ZOXAMIDE, 3,5-dichloro-N-(3-chloro-1-ethyl-1-methyl-2-oxopropyl)-4-methyl benzamide]
Defoliation % [1, 3]: 52.50%
Efficacy % (defoliation) [1, 3]: 35.38%
Defoliation % [1, 4]: 48.75%
Efficacy % (defoliation) [1, 4]: 40.00%
Defoliation % [1, 5]: 42.50%
Efficacy % (defoliation) [1, 5]: 47.69%
Defoliation % [1, 6]: 70.00%
Efficacy % (defoliation) [1, 6]: 30.00%
Defoliation % [1, 7]: 60.00%
Efficacy % (defoliation) [1, 7]: 40.00%
Defoliation % [1, 8]: 51.25%
Efficacy % (defoliation) [1, 8]: 48.75%
% E (efficacy) [2, 9]: 100.00%
% S (severity) [2, 9]: 0.00%
% E (efficacy) [2, 10]: 100.00%
% S (severity) [2, 10]: 0.00%
% E (efficacy) [2, 11]: 100.00%
% S (severity) [2, 11]: 0.00%
% E (efficacy) [2, 12]: 85.88%
% S (severity) [2, 12]: 3.00%
% E (efficacy) [2, 13]: 100.00%
% S (severity) [2, 13]: 0.00%
% E (efficacy) [2, 14]: 100.00%
% S (severity) [2, 14]: 0.00%
% E (efficacy) [2, 15]: 100.00%
% S (severity) [2, 15]: 0.00%
% E (efficacy) [2, 16]: 100.00%
% S (severity) [2, 16]: 0.00%
% E (efficacy) [2, 17]: 100.00%
% S (severity) [2, 17]: 0.00%
% E (efficacy) [2, 18]: 76.47%
% S (severity) [2, 18]: 5.00%
% E (efficacy) [2, 19]: 85.88%
% S (severity) [2, 19]: 3.00%
% E (efficacy) [2, 20]: 100.00%
% S (severity) [2, 20]: 0.00%
% E (efficacy) [2, 3]: 70.27%
% S (severity) [2, 3]: 13.75%
% E (efficacy) [2, 4]: 81.08%
% S (severity) [2, 4]: 8.75%
% E (efficacy) [2, 5]: 90.27%
% S (severity) [2, 5]: 4.50%

OC(Cc1ccccc1Cl)(Cn1nc[nH]c1=S)C1(Cl)CC1 (stereo not shown) [PROTHIOCONAZOLE, prothioconazole]
Defoliation % [1, 21]: 50.00%
Efficacy % (defoliation) [1, 21]: 38.46%
Defoliation % [1, 22]: 70.00%
Efficacy % (defoliation) [1, 22]: 30.00%
% E (efficacy) [2, 23]: 100.00%
% S (severity) [2, 23]: 0.00%
% E (efficacy) [2, 24]: 85.88%
% S (severity) [2, 24]: 3.00%
% E (efficacy) [2, 25]: 100.00%
% S (severity) [2, 25]: 0.00%
% E (efficacy) [2, 26]: 85.88%
% S (severity) [2, 26]: 3.00%
% E (efficacy) [2, 21]: 62.16%
% S (severity) [2, 21]: 17.50%

N#Cc1c(Cl)c(Cl)c(Cl)c(C#N)c1Cl [CHLOROTHALONIL, chlorothalonil]
Defoliation % [1, 27]: 50.00%
Efficacy % (defoliation) [1, 27]: 38.46%
Defoliation % [1, 28]: 60.00%
Efficacy % (defoliation) [1, 28]: 40.00%
% E (efficacy) [2, 29]: 100.00%
% S (severity) [2, 29]: 0.00%
% E (efficacy) [2, 30]: 76.47%
% S (severity) [2, 30]: 5.00%
% E (efficacy) [2, 31]: 66.67%
% S (severity) [2, 31]: 5.00%
% E (efficacy) [2, 32]: 76.47%
% S (severity) [2, 32]: 5.00%
% E (efficacy) [2, 27]: 68.11%
% S (severity) [2, 27]: 14.75%
